Assay results from ChEMBL document CHEMBL1201862, “PubChem BioAssay data set” (2004).
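Compound exposure: 48 hours, 5 concentrations, 96-well plates. GI50 = concentration required for 50% inhibition of growth.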 Calls of active or inactive are those of the source. No stated cut-off is given here; in the data, active = GI50 up to about 1.1 µM and inactive = higher.

What was measured:
Test in all cases: inhibition of tumour cell growth, NCI panel, 48 h
HCC 2998 = test system: HCC 2998
U-251 = test system: U-251
EKVX = test system: EKVX
ACHN = test system: ACHN
CAKI-1 = test system: CAKI-1
SK-OV-3 = test system: SK-OV-3
BT-549 = test system: BT-549
NCI-H460 = test system: NCI-H460
HCT-15 = test system: HCT-15
M14 = test system: M14
SF-268 = test system: SF-268
SW-620 = test system: SW-620
HOP-62 = test system: HOP-62
OVCAR-4 = test system: OVCAR-4
MDA-MB-231 = test system: MDA-MB-231
COLO 205 = test system: COLO 205
SF-295 = test system: SF-295
SK-MEL-28 = test system: SK-MEL-28
NCI-H522 = test system: NCI-H522
T47D = test system: T47D

Row | SMILES | GI50 (HCC 2998) | GI50 (U-251) | GI50 (EKVX) | GI50 (ACHN) | GI50 (CAKI-1) | GI50 (SK-OV-3) | GI50 (BT-549) | GI50 (NCI-H460) | GI50 (HCT-15) [µM] | GI50 (M14) | GI50 (SF-268) | GI50 (SW-620) | GI50 (HOP-62) | GI50 (OVCAR-4) | GI50 (MDA-MB-231) | GI50 (COLO 205) | GI50 (SF-295) | GI50 (SK-MEL-28) | GI50 (NCI-H522) | GI50 (T47D)
1 | COc1ccc2nc3ccc(OC)cc3c(SCc3ccccc3)c2c1 | 38.8 µM (inactive) | > 88.3 µM (inactive) | > 100 µM (inactive) | 97.9 µM (inactive) | > 100 µM (inactive) | > 100 µM (inactive) | > 100 µM (inactive) | > 89.1 µM (inactive) | > 95.5 | > 33.1 µM (inactive) | > 100 µM (inactive) | > 74.3 µM (inactive) | > 100 µM (inactive) | > 100 µM (inactive) | > 100 µM (inactive) | > 86.3 µM (inactive) | > 91 µM (inactive) | > 85.7 µM (inactive) | > 84.9 µM (inactive) | > 100 µM (inactive)
2 | O=C(Nc1nn(C(=O)c2cccnc2)c(=O)s1)c1ccc(Cl)cc1 | > 100 µM (inactive) | 74 µM (inactive) | 50.6 µM (inactive) | > 100 µM (inactive) | 40.6 µM (inactive) | 56.2 µM (inactive) | > 100 µM (inactive) | > 100 µM (inactive) | 80.4 | > 100 µM (inactive) | 20.7 µM (inactive) | > 100 µM (inactive) | > 100 µM (inactive) | 84.7 µM (inactive) | > 100 µM (inactive) | 40.6 µM (inactive) | 46.3 µM (inactive) | > 100 µM (inactive) | 21.7 µM (inactive) | 27 µM (inactive)
3 | CN(C)CCCC1c2ccccc2Oc2ccc(C(F)(F)F)cc21 (stereo not given) | 1.63 µM (inactive) | 11.4 µM (inactive) | 15.9 µM (inactive) | 16.7 µM (inactive) | 12.9 µM (inactive) | 16.8 µM (inactive) | 14.2 µM (inactive) | 15 µM (inactive) | 16.1 | 5.75 µM (inactive) | 14.3 µM (inactive) | 15.4 µM (inactive) | 16.5 µM (inactive) | 14.5 µM (inactive) | 12.8 µM (inactive) | 4.65 µM (inactive) | 16.5 µM (inactive) | 6.46 µM (inactive) | 14.3 µM (inactive) | 14.6 µM (inactive)
